The target in assay [1] is T1, hSERT (Homo sapiens, UniProt P31645). The assay is described as follows: hSERT membrane radioligand binding assay (3H-citalopram), Assay 1. The following applies: SERT pKi, hSERT HEK-293 membranes, 1.0 nM 3H-citalopram; values given as lower bounds.
The target of assay [2] is T1, hSERT. The assay is described as follows: hSERT neurotransmitter uptake assay (3H-5-HT), Assay 2. Further details: expressed in transfected cells; host or cells: HEK-293. To be noted: serotonin reuptake inhibition, 3H-5-HT uptake, HEK-293 hSERT cells (values without asterisk); read-out: SERT pIC50 (converted). In kind it is cell-based.
Assay [3] addresses T2, hNET (Homo sapiens, UniProt P23975). Put plainly: hNET neurotransmitter uptake assay (3H-NE), Assay 2. The assay is classed as cell-based. Further details: expressed in transfected cells; host or cells: HEK-293. To be noted: norepinephrine reuptake inhibition, 3H-NE uptake, HEK-293 hNET cells (values without asterisk); read-out: NET pIC50 (converted).
Assay [4] concerns the target T2, hNET. The assay is described as follows: hNET membrane radioligand binding assay (3H-nisoxetine), Assay 1.

The source of these data is patent US7994209B2, “3-phenoxymethylpyrrolidine compounds” (Theravance, Inc., priority 2009, dated 2011).

T1 sequence (P31645 whole entry): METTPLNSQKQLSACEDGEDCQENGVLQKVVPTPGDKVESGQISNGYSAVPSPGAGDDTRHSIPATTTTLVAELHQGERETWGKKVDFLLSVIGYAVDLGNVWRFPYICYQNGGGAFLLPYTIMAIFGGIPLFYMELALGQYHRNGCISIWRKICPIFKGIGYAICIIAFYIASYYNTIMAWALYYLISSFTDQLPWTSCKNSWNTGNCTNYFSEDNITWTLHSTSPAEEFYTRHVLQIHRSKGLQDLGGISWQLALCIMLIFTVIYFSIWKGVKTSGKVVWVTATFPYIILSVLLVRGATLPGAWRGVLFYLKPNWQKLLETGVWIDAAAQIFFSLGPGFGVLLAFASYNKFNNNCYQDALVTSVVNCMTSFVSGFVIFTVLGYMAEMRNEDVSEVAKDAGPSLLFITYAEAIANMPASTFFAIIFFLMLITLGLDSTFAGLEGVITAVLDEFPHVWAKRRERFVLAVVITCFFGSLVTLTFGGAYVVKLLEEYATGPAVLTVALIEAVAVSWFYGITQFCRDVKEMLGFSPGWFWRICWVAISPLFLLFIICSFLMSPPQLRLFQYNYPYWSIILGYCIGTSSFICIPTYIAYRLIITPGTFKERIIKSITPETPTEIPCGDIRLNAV
T2 sequence (P23975 whole entry): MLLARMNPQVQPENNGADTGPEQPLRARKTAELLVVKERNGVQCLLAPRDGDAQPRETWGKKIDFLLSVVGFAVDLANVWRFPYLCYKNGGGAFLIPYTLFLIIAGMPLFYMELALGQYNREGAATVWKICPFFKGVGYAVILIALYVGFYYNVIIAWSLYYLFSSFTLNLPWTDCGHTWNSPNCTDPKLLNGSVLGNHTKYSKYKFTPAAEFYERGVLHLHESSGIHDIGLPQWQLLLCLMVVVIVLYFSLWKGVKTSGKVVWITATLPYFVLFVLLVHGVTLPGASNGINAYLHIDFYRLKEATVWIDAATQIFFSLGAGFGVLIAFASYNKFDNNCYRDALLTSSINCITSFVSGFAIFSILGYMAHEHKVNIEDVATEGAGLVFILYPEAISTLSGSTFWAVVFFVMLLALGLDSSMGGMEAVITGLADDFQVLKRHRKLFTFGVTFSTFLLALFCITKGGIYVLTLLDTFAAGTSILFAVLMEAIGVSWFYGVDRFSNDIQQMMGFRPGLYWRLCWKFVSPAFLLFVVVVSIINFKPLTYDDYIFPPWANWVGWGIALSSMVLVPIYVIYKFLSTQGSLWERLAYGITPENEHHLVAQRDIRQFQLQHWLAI

With `CC(C)[C@H](Oc1ccc(Cl)c(F)c1F)[C@H]1CCNC1` [Example 6-10, (S)-3-[(S)-1-(4-Chloro-2,3-difluorophenoxy)-2-methylpropyl]pyrrolidine], the Ki on hSERT [1] and at hNET [4] was at most 10 nM throughout. Also, the IC50 at hSERT [2] and on hNET [3] was at most 10 nM each time.
For `CC(C)C[C@H](Oc1cc(F)c(F)cc1F)[C@H]1CCNC1` [Example 10-57, (S)-3-[(S)-3-Methyl-1-(2,4,5-trifluorophenoxy)butyl]pyrrolidine], the Ki on hSERT [1] and at hNET [4] was at most 10 nM each time. Also, the figures for the IC50 at hSERT [2] and at hNET [3] were at most 100 nM and at most 10 nM, respectively.
For the molecule `CCC[C@H](Oc1ccc(Cl)c(F)c1)[C@H]1CCNC1` [Example 4-18, (S)-3-[(S)-1-(4-Chloro-3-fluorophenoxy)butyl]pyrrolidine], the Ki at hSERT [1] and on hNET [4] was at most 10 nM in each case. The IC50 at hSERT [2] and on hNET [3] was at most 10 nM each time.
As for `CCC[C@@H](Oc1cccc(Cl)c1Cl)[C@H]1CCNC1` [Example 4-23, (S)-3-[(R)-1-(2,3-Dichlorophenoxy)butyl]pyrrolidine], the Ki at hSERT [1] and at hNET [4] was at most 10 nM in each case. Also, the IC50 at hSERT [2] and on hNET [3] was at most 10 nM throughout.
As to `CC[C@@H](Oc1c(Cl)ccc(Cl)c1Cl)[C@H]1CCNC1` [Example 2-38, (S)-3-[(R)-1-(2,3,6-Trichlorophenoxy)propyl]pyrrolidine], the Ki on hSERT [1] and at hNET [4] was at most 10 nM in each case. For the same molecule, the results for the IC50 on hSERT [2] and at hNET [3] were at most 100 nM and at most 10 nM, respectively.
For `CC(C)[C@H](Oc1ccc(Cl)cc1Cl)[C@H]1CCNC1` [Example 6-21, (S)-3-[(S)-1-(2,4-Dichlorophenoxy)-2-methylpropyl]pyrrolidine], the Ki on hSERT [1] and on hNET [4] was at most 10 nM each time. Further, the IC50 at hSERT [2] and at hNET [3] was at most 10 nM in each case.
As for `CC(C)CC(Oc1ccccc1Cl)C1CCNC1` (centres unmarked) [Example 10-3, 3-[1-(2-Chlorophenoxy)-3-methylbutyl]pyrrolidine], the Ki at hSERT [1] and at hNET [4] was at most 10 nM each time. In addition, the IC50 at hSERT [2] is at most 100 nM; at hNET [3], at most 10 nM.
With `CC(C)C[C@H](Oc1cccc(F)c1Cl)[C@H]1CCNC1` [Example 10-25, (S)-3-[(S)-1-(2-Chloro-3-fluorophenoxy)-3-methylbutyl]pyrrolidine], the Ki on hSERT [1] and at hNET [4] was at most 10 nM each time. Moreover, the IC50 at hSERT [2] and on hNET [3] was at most 10 nM in each case.
Consider `COc1ccc(F)cc1O[C@@H](CC(C)C)[C@H]1CCNC1` [Example 10-50, (S)-3-[(S)-1-(5-Fluoro-2-methoxyphenoxy)-3-methylbutyl]pyrrolidine], for which the inhibitory constant (Ki) at hSERT [1] and on hNET [4] was at most 10 nM each time. Also, the IC50 on hSERT [2] is at most 100 nM; on hNET [3] it was at most 10 nM.
Consider `CCc1cc(F)ccc1O[C@@H](C1CC1)[C@H]1CCNC1` [Example 16-34, (S)-3-[(S)cyclopropyl-(2-ethyl-4-fluorophenoxy)-methyl]pyrrolidine], for which the Ki at hSERT [1] and at hNET [4] was at most 10 nM each time. For the same molecule, the IC50 on hSERT [2] and on hNET [3] was at most 10 nM in each case.
Consider `CC[C@H](Oc1ccc(Cl)cc1OC)[C@H]1CCNC1` [Example 2-68, (S)-3-[(S)-1-(4-Chloro-2-methoxyphenoxy)propyl]pyrrolidine], for which the Ki at hSERT [1] and at hNET [4] was at most 10 nM throughout. In addition, the IC50 on hSERT [2] and at hNET [3] was at most 10 nM each time.
Turning to `CCC[C@H](Oc1c(F)ccc(OC)c1Cl)[C@H]1CCNC1` [Example 4-43, (S)-3-[(S)-1-(2-Chloro-6-fluoro-3-methoxyphenoxy)butyl]pyrrolidine], the Ki at hSERT [1] and on hNET [4] was at most 10 nM each time. In addition, the IC50 on hSERT [2] and on hNET [3] was at most 10 nM each time.
As for `CC[C@H](Oc1ccc(Cl)cc1C(F)(F)F)[C@H]1CCNC1` [Example 2-75, (S)-3-[(S)-1-(4-Chloro-2-trifluoromethylphenoxy)propyl]pyrrolidine], the Ki on hSERT [1] and at hNET [4] was at most 10 nM in each case. Besides, the IC50 on hSERT [2] was at most 100 nM; on hNET [3], at most 10 nM.
As to `Clc1cccc(Cl)c1O[C@@H](C1CCCCC1)[C@H]1CCNC1` [Example 19, (S)-3-[(S)-Cyclohexyl-(2,6-dichlorophenoxy)methyl]pyrrolidine], the Ki at hSERT [1] and on hNET [4] was at most 10 nM each time. The IC50 at hSERT [2] is at most 100 nM; at hNET [3] it was at most 10 nM.
Take `Cc1ccccc1O[C@@H](C1CC1)[C@H]1CCNC1` [Example 16-3, (S)-3-((S)cyclopropyl-o-tolyloxymethyl)pyrrolidine]: the Ki (commonly a measure of affinity in units of concentration, obtained from inhibition or displacement) on hSERT [1] is at most 100 nM; on hNET [4], at most 10 nM. The results for the IC50 at hSERT [2] and at hNET [3] were at most 316 nM and at most 10 nM, respectively.
As for `CCC[C@H](Oc1ccc(F)cc1)[C@H]1CCNC1` [Example 4-5, (S)-3-[(S)-1-(4-Fluorophenoxy)butyl]pyrrolidine], the Ki at hSERT [1] and on hNET [4] was at most 10 nM each time. For the same molecule, the IC50 was at most 100 nM on hSERT [2] and at most 10 nM at hNET [3].
As to `C#CC(Oc1c(Cl)ccc(Cl)c1Cl)[C@H]1CCNC1` (stereo partly drawn) [Example 26, (S)-3-[1(2,3,6-Trichlorophenoxy)prop-2-ynyl]pyrrolidine], the Ki at hSERT [1] and on hNET [4] was at most 10 nM in each case. In addition, the IC50 is at most 100 nM at hSERT [2] and at most 10 nM on hNET [3].
In the case of `CC(C)C[C@@H](Oc1cccc(Cl)c1F)[C@H]1CCNC1` [Example 10-18, (S)-3-[(R)-1-(3-Chloro-2-fluorophenoxy)-3-methylbutyl]pyrrolidine], the Ki on hSERT [1] and on hNET [4] was at most 10 nM in each case. Further, the IC50 on hSERT [2] and on hNET [3] was at most 10 nM each time.
Regarding `Clc1cc(Cl)cc(O[C@@H](C2CC2)[C@H]2CCNC2)c1` [Example 16-96, (S)-3-[(S)cyclopropyl-(3,5-dichlorophenoxy)methyl]pyrrolidine], the Ki at hSERT [1] and on hNET [4] was at most 10 nM in each case. In addition, the IC50 on hSERT [2] and at hNET [3] was at most 10 nM throughout.
In the case of `CCC[C@@H](Oc1cccc2ccccc12)[C@H]1CCNC1` [Example 14-2, (S)-3-[(R)-1-(Naphthalen-1-yloxy)butyl]pyrrolidine], the Ki on hSERT [1] and on hNET [4] was at most 10 nM throughout. The IC50 at hSERT [2] and at hNET [3] was at most 10 nM throughout.
As to `CC[C@H](Oc1ccccc1C)[C@H]1CCNC1` [Example 2-62, (S)-3-((S)-1-o-Tolyloxypropyl)pyrrolidine], the Ki on hSERT [1] and on hNET [4] was at most 10 nM each time. Further, the results for the IC50 at hSERT [2] and on hNET [3] were at most 100 nM and at most 10 nM, respectively.
Consider `CC(C)C[C@H](Oc1cc(Cl)cc(Cl)c1)[C@H]1CCNC1` [Example 10-77, (S)-3-[(S)-1-(3,5-Dichlorophenoxy)-3-methylbutyl]pyrrolidine], for which the Ki at hSERT [1] and at hNET [4] was at most 10 nM each time. For the same molecule, the IC50 at hSERT [2] and on hNET [3] was at most 10 nM throughout.
Turning to `COc1cc(Cl)ccc1O[C@H](C1CC1)[C@H]1CCNC1` [Example 16-38, (S)-3-[(R)-(4-Chloro-2-methoxyphenoxy)cyclopropylmethyl]pyrrolidine], the Ki at hSERT [1] and at hNET [4] was at most 10 nM each time. Moreover, the figures for the IC50 on hSERT [2] and at hNET [3] were at most 10 nM and at most 100 nM, respectively.
On to `CC(C)C[C@H](Oc1cccc(Cl)c1F)[C@H]1CCNC1` [Example 10-19, (S)-3-[(S)-1-(3-Chloro-2-fluorophenoxy)-3-methylbutyl]pyrrolidine], for which the Ki on hSERT [1] and at hNET [4] was at most 10 nM throughout. Also, the IC50 on hSERT [2] and at hNET [3] was at most 10 nM in each case.
`CC(C)C[C@H](Oc1ccc(Cl)cc1F)[C@H]1CCNC1` [Example 10-41, (S)-3-[(S)-1-(4-Chloro-2-fluorophenoxy)-3-methylbutyl]pyrrolidine]: the Ki on hSERT [1] and at hNET [4] was at most 10 nM throughout. In addition, the IC50 on hSERT [2] and at hNET [3] was at most 10 nM each time.
Regarding `CC(C)C(Oc1cccc(Cl)c1Cl)C1CCNC1` (centres unmarked) [Example 6-13, 3-[1-(2,3-Dichlorophenoxy)-2-methylpropyl]pyrrolidine], the Ki at hSERT [1] and on hNET [4] was at most 10 nM each time. The IC50 at hSERT [2] and at hNET [3] was at most 10 nM each time.
For `C=CC[C@H](Oc1ccc(Cl)cc1)[C@H]1CCNC1` [Example 25-1, (S)-3-[(S)-1-(4-Chlorophenoxy)but-3-enyl]pyrrolidine], the Ki at hSERT [1] and at hNET [4] was at most 10 nM in each case. For the same molecule, the IC50 at hSERT [2] and on hNET [3] was at most 10 nM each time.
In the case of `COc1cc(Cl)ccc1O[C@@H](C1CC1)[C@H]1CCNC1` [Example 16-37, (S)-3-[(S)-(4-Chloro-2-methoxyphenoxy)cyclopropylmethyl]pyrrolidine], the Ki at hSERT [1] and at hNET [4] was at most 10 nM in each case. Further, the IC50 on hSERT [2] and at hNET [3] was at most 10 nM each time.
Consider `CCC[C@@H](Oc1cccc(C)c1C)[C@@H]1CCNC1` [Example 4-63, (R)-3-[(R)-1-(2,3-Dimethylphenoxy)butyl]pyrrolidine], for which the Ki at hSERT [1] and on hNET [4] was at most 10 nM throughout. Besides, the IC50 on hSERT [2] and on hNET [3] was at most 10 nM throughout.
